The values that follow come from patent publication US20140155406A1, “4-IMIDAZOPYRIDAZIN-1-YL-BENZAMIDES AND 4-IMIDAZOTRIAZIN-1-YL-BENZAMIDES BTK INHIBITORS” (priority 2011, published 2014).

Experiment [1] addresses T1, Btk enzyme (His-Btk) (Homo sapiens, UniProt Q06187).
T1 construct: His; purchased Millipore 14-552
Description: Btk enzyme activity, IMAP fluorescence polarization assay. It is filed as biochemical. The note with it: 60 min pre-incubation, 5 μM ATP (Km); bin bounds given in nM. The source says:
Inhibition of kinase activity can be measured using the Immobilized Metal Assay for Phosphochemicals (IMAP) assay. IMAP is a homogeneous fluorescence polarization (FP) assay based on affinity capture of phosphorylated peptide substrates. IMAP uses fluorescein-labeled peptide substrates that, upon phosphorylation by a protein kinase, bind to so-called IMAP nanoparticles, which are derivatized with trivalent metal complexes. Binding causes a change in the rate of the molecular motion of the peptide, and results in an increase in the FP value observed for the fluorescein label attached to the substrate peptide (Gaudet et al. A homogeneous fluorescence polarization assay adaptable for a range of protein serine/threonine and tyrosine kinases. J. Biomol. Screen (2003) 8, 164-175).
Btk enzyme activity is measured using the IMAP (immobilized metal ion affinity-based fluorescence polarization) assay as outlined below.
Btk enzyme (His-Btk (Millipore catalog#14-552), is diluted to 0.4 U/mL in KR buffer (10 mM Tris-HCl, 10 mM MgCl2, 0.01% Tween-20, 0.05% NaN3, 1 mM DTT, 2 mM MnCl2, pH 7.2).
Serial dilution log 10 from 2 mM to 63.2 nM of test compounds are made in 100% DMSO. The dilutions in DMSO are then diluted 50-fold in KR-buffer. Final compound concentration range in the assay from 10 μM to 0.316 nM.
5 μL/well of test compound in KR buffer (final DMSO concentration in the assay is 1%) is mixed with 5 μl/well of 0.4 U/mL Btk enzyme (final concentration in the assay is 0.1 U/mL). Test compounds and Btk enzyme are pre-incubated 60 minutes at room temperature, before adding 5 μL/well of 200 nM Fluorescin labeled substrate peptide (Blk/Lyntide substrate, e.g. #R7188/#R7233, Molecular Devices) in KR-buffer. Final peptide substrate concentration in assay is 50 nM. The kinase assay is started by adding 5 μL/well of 20 μM ATP in KR-buffer (final ATP concentration is 5 μM ATP, Km ATP in Btk IMAP assay). Following incubation for 2 h at room temperature the enzyme reaction is stopped by adding 40 μL/well IMAP Progressive Binding Solution (according to suppliers (Molecular Devices) protocol using 75% 1× buffer A and 25% 1× buffer B with 1:600 Progressive Binding Solution). After 60 min incubation at room temperature in the dark the FP signal is read. Fluorescence at 535 nm is measured using parallel and perpendicular filters to determine differences in rotation due to binding of the phosphorylated substrate peptide to the beads. Values are calculated as percentage of the difference in readout (ΔmPi) of the controls with and without ATP. EC50 values are determined by curve fitting of the experimental results using Activity Base.

The target in experiment [2] is T2, Lyn enzyme (Homo sapiens, UniProt P07948).
T2 construct: purchased Millipore 14-510
Description: Lyn enzyme activity, IMAP fluorescence polarization assay. It is filed as biochemical. The note with it: 60 min pre-incubation, 2 μM ATP (Km). (Polarisation of emitted light reports the rotation of a fluorescent probe.)

Some results are limits rather than exact numbers.

T2 sequence (P07948 whole entry): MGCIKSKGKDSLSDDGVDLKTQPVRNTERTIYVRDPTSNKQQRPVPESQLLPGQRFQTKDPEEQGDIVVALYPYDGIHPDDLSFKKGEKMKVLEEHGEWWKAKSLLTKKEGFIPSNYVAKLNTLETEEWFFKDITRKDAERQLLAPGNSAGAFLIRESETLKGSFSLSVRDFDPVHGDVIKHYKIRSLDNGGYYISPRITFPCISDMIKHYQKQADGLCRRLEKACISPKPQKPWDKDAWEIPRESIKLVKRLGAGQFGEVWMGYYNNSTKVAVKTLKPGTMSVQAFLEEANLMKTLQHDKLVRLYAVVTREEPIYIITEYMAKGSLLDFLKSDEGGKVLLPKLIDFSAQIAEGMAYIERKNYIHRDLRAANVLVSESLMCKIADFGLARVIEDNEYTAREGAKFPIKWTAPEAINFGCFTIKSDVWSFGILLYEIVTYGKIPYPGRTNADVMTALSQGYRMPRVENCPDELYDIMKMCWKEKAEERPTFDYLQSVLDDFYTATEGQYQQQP
T1 sequence (Q06187 whole entry): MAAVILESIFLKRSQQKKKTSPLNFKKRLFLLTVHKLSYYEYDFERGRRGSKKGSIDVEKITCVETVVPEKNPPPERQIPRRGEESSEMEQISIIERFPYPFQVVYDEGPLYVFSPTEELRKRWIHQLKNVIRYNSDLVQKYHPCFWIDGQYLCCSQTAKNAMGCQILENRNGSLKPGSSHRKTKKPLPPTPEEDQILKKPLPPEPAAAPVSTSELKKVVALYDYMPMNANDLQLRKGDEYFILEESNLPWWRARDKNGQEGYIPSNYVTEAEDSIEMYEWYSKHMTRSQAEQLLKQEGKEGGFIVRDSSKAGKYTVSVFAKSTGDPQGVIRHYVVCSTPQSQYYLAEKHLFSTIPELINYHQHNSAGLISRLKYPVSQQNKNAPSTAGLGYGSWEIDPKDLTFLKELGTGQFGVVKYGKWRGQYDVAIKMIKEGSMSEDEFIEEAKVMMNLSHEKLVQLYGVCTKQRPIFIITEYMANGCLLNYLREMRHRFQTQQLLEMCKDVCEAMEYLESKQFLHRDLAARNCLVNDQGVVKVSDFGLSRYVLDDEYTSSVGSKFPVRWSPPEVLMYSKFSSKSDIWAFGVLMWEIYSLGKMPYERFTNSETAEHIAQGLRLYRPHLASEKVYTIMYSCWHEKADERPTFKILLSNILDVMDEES

As usually defined, the EC50 is the concentration needed to bring the measured effect to its halfway point. With `C=CC(=O)N1CCCC[C@H]1c1nc(-c2ccc(C(=O)Nc3cc(C(F)(F)F)ccn3)cc2)c2c(C)nccn12` [Example 27, (S)-4-(3-(1-acryloylpiperidin-2-yl)-8-methylimidazo[1,5-a]pyrazin-1-yl)-N-(4-(trifluoromethyl)pyridin-2-yl)benzamide], the figures for the EC50 in experiment [1] and in experiment [2] were less than 10 nM and not below 1000 nM, respectively.
Consider `CCCc1ccnc(NC(=O)c2ccc(-c3nc([C@H](C)NC(=O)/C=C/CN(C)C)n4ccnc(C)c34)cc2)c1` [Example 28, (S,E)-4-(3-(1-(4-(dimethylamino)but-2-enamido)ethyl)-8-methylimidazo[1,5-a]pyrazin-1-yl)-N-(4-propylpyridin-2-yl)benzamide], for which the EC50 in experiment [1] was less than 10 nM; in experiment [2] it was not below 1000 nM.
Turning to `CC#CC(=O)N1CCCC[C@H]1c1nc(-c2ccc(C(=O)Nc3cc(C(F)(F)F)ccn3)cc2)c2c(C)nccn12` [Example 29, (S)-4-(3-(1-but-2-ynoylpiperidin-2-yl)-8-methylimidazo[1,5-a]pyrazin-1-yl)-N-(4-(trifluoromethyl)pyridin-2-yl)benzamide], the EC50 is less than 10 nM in experiment [1] and not below 1000 nM in experiment [2].
Regarding `CCCc1ccnc(NC(=O)c2ccc(-c3nc([C@@H]4CCCCN4C(=O)/C=C/CN4CCCC4)n4ccnc(C)c34)cc2)c1` [Example 35, (S,E)-4-(8-methyl-3-(1-(4-(pyrrolidin-1-yl)but-2-enoyl)piperidin-2-yl)imidazo[1,5-a]pyrazin-1-yl)-N-(4-propylpyridin-2-yl)benzamide], the values for the EC50 in experiment [1] and in experiment [2] were less than 10 nM and not below 1000 nM, respectively.
The matching figures for `CCCc1ccnc(NC(=O)c2ccc(-c3nc([C@H](C)NC(=O)/C=C/COC)n4ccnc(C)c34)cc2)c1` [Example 36, (S,E)-4-(3-(1-(4-methoxybut-2-enamido)ethyl)-8-methylimidazo[1,5-a]pyrazin-1-yl)-N-(4-propylpyridin-2-yl)benzamide]: less than 10 nM and not below 1000 nM.
For `Cc1nccn2c([C@@H]3CCCCN3C(=O)/C=C/CN(C)C)nc(-c3ccc(C(=O)Nc4cc(C(F)(F)F)ccn4)cc3)c12` [Example 37, (S,E)-4-(3-(1-(4-(dimethylamino)but-2-enoyl)piperidin-2-yl)-8-methylimidazo[1,5-a]pyrazin-1-yl)-N-(4-(trifluoromethyl)pyridin-2-yl)benzamide] the same measures were less than 10 nM and not below 1000 nM.
With `CC#CC(=O)N[C@@H](C)c1nc(-c2ccc(C(=O)Nc3cc(CCC)ccn3)cc2)c2c(C)nccn12` [Example 38, (S)-4-(3-(1-but-2-ynamidoethyl)-8-methylimidazo[1,5-a]pyrazin-1-yl)-N-(4-propylpyridin-2-yl)benzamide], the results for the 50% effective concentration (EC50) in experiment [1] and in experiment [2] were less than 10 nM and not below 1000 nM, respectively.
